The source made the active and inactive calls. The calls are words filed in the database; no cut-off is given here.
Tests used:
[1] = (§1) Positive inotropic activity in New Zealand White rabbit beating left atrium assessed as increase in stroke volume at 100 umol/L after 36 mins; assay type: functional, Oryctolagus cuniculus, Cardiac atrium
Oryctolagus cuniculus [2] = species on record: Oryctolagus cuniculus; assay: Negative inotropic activity in New Zealand White rabbit beating left atrium assessed as decrease in stroke volume at 100 umol/L after incubation for longer period; assay type: functional, tissue-based; details: Cardiac atrium
Oryctolagus cuniculus [3] = species on record: Oryctolagus cuniculus; assay: as §1; assay type: functional; details: Cardiac atrium
Oryctolagus cuniculus [4] = species on record: Oryctolagus cuniculus; assay: Positive inotropic activity in New Zealand White rabbit beating left atrium assessed as increase in stroke volume after 36 mins; assay type: functional, tissue-based; details: Cardiac atrium
Oryctolagus cuniculus [5] = species on record: Oryctolagus cuniculus; assay: Positive inotropic activity in New Zealand White rabbit beating left atrium assessed as increase in stroke volume at 300 umol/L after 36 mins; assay type: functional, tissue-based; details: Cardiac atrium

SMILES	Activity [1] [%]	Activity (Oryctolagus cuniculus [3])	further results
COc1ccc(COc2ccc(CN3CCC(C(=O)Nc4ccc5c(c4)CCc4nnc(C)n4-5)CC3)cc2OC)cc1	6.08	–	Activity (Oryctolagus cuniculus [2]): Active
Cc1nnc2n1-c1ccc(NC(=O)C3CCN(Cc4c(Cl)cccc4Cl)CC3)cc1CC2	–	inactive	–
COc1ccc(CN2CCC(C(=O)Nc3ccc4c(c3)CCc3nnc(C)n3-4)CC2)cc1	–	inactive	–
Cc1ccc(CN2CCC(C(=O)Nc3ccc4c(c3)CCc3nnc(C)n3-4)CC2)cc1	–	inactive	–
COc1cc(CN2CCC(C(=O)Nc3ccc4c(c3)CCc3nnc(C)n3-4)CC2)ccc1OCc1ccccc1[N+](=O)[O-]	–	inactive	–
COc1cc(CN2CCC(C(=O)Nc3ccc4c(c3)CCc3nnc(C)n3-4)CC2)ccc1OCc1ccc(F)cc1	–	inactive	–
COc1cc(CN2CCC(C(=O)Nc3ccc4c(c3)CCc3nnc(C)n3-4)CC2)ccc1OCc1ccc(C)cc1	–	inactive	–
COc1cc(CN2CCC(C(=O)Nc3ccc4c(c3)CCc3nnc(C)n3-4)CC2)ccc1OCc1cccc([N+](=O)[O-])c1	–	inactive	–
COc1cc(CN2CCC(C(=O)Nc3ccc4c(c3)CCc3nnc(C)n3-4)CC2)ccc1OCc1ccc(Cl)cc1	5.13	–	Activity (Oryctolagus cuniculus [2]): Active
Cc1nnc2n1-c1ccc(NC(=O)C3CCN(Cc4ccccc4Br)CC3)cc1CC2	1.67	–	–
Cc1nnc2n1-c1ccc(NC(=O)C3CCN(Cc4ccc(Cl)cc4Cl)CC3)cc1CC2	7.83	–	Activity (Oryctolagus cuniculus [2]): Active
Cc1nnc2n1-c1ccc(NC(=O)C3CCN(Cc4ccccc4Cl)CC3)cc1CC2	0.4	–	Activity (Oryctolagus cuniculus [2]): Active
COc1cc(CN2CCC(C(=O)Nc3ccc4c(c3)CCc3nnc(C)n3-4)CC2)ccc1OCc1ccccc1	5.19	–	–
COc1cc(CN2CCC(C(=O)Nc3ccc4c(c3)CCc3nnc(C)n3-4)CC2)ccc1OCc1ccccc1Cl	–	inactive	–
COc1cc(CN2CCC(C(=O)Nc3ccc4c(c3)CCc3nnc(C)n3-4)CC2)ccc1OCc1cccc(Cl)c1	5.56	–	Activity (Oryctolagus cuniculus [2]): Active
COc1ccc(COc2ccc(CN3CCC(C(=O)Nc4ccc5c(c4)CCc4nnc(C)n4-5)CC3)cc2OC)cc1OC	–	inactive	–

SMILES	Activity [1] [%]	Activity (Oryctolagus cuniculus [3])	further results
COc1cc(CN2CCC(C(=O)Nc3ccc4c(c3)CCc3nnc(C)n3-4)CC2)ccc1OCc1cccc(F)c1	0.18	–	–
Cc1nnc2n1-c1ccc(NC(=O)C3CCN(Cc4ccccc4F)CC3)cc1CC2	11.92	–	Activity (Oryctolagus cuniculus [4]): Dose-dependent effect; Activity (Oryctolagus cuniculus [5]): inactive
COc1cc(CN2CCC(C(=O)Nc3ccc4c(c3)CCc3nnc(C)n3-4)CC2)ccc1OCc1c(Cl)cccc1Cl	–	inactive	–
Cc1nnc2n1-c1ccc(NC(=O)C3CCN(Cc4ccccc4[N+](=O)[O-])CC3)cc1CC2	–	inactive	–
COc1cc(CN2CCC(C(=O)Nc3ccc4c(c3)CCc3nnc(C)n3-4)CC2)ccc1OCc1ccc(Cl)cc1Cl	2.78	–	–
Cc1nnc2n1-c1ccc(NC(=O)C3CCN(Cc4cccc(F)c4)CC3)cc1CC2	1.56	–	–
Cc1nnc2n1-c1ccc(NC(=O)C3CCN(Cc4ccc(Cl)cc4)CC3)cc1CC2	–	inactive	–
Cc1nnc2n1-c1ccc(NC(=O)C3CCN(Cc4ccc5c(c4)OCO5)CC3)cc1CC2	2.96	–	–
Cc1nnc2n1-c1ccc(NC(=O)C3CCN(Cc4cccc([N+](=O)[O-])c4)CC3)cc1CC2	8.14	–	–
Cc1nnc2n1-c1ccc(NC(=O)C3CCN(Cc4ccccc4)CC3)cc1CC2	–	inactive	–
COc1cc(CN2CCC(C(=O)Nc3ccc4c(c3)CCc3nnc(C)n3-4)CC2)ccc1OCc1ccccc1Br	–	inactive	–
Cc1[nH]c(=O)c(C#N)cc1-c1ccncc1 [MILRINONE]	6.36	–	–
COc1cc(CN2CCC(C(=O)Nc3ccc4c(c3)CCc3nnc(C)n3-4)CC2)ccc1OCc1ccccc1F	7.41	–	Activity (Oryctolagus cuniculus [4]): Dose-dependent effect; Activity (Oryctolagus cuniculus [5]): inactive
COc1ccc(CN2CCC(C(=O)Nc3ccc4c(c3)CCc3nnc(C)n3-4)CC2)cc1OC	1.87	–	–
Cc1nnc2n1-c1ccc(NC(=O)C3CCN(Cc4cccc(Cl)c4)CC3)cc1CC2	9.97	–	–
Cc1nnc2n1-c1ccc(NC(=O)C3CCN(Cc4ccc(F)cc4)CC3)cc1CC2	–	inactive	–
